Measurements from US11446253B2, “Ionic liquids for internal delivery” (priority 2017, dated 2022).
Values after ≈ are worked out from the molar mass of the structure shown. Values joined by “and” are separate entries in the source; they are usually repeats but may differ in a detail not shown here. Equal entries are not always repeated. “Also recorded” adds a separate entry of the source. Where two headings read alike, the source gives them in different places.

Legend:
4T1 cells = assay: 4T1 cell viability, calcein-AM assay; type: cell-based; details: drug solubilized in CAGE (1:1) vs DMSO
Description: In vitro anticancer efficacy of drug-loaded liposomes was determined using calcein-AM cell viability assay (Life Technologies). 4T1 cells were seeded in a 96-well cell culture plate at a density of 11,000 cells per well or 1,000 cells per well in a total volume of 100 μL media and allowed to adhere overnight. […] After incubation with drug, media was aspirated and replaced with 1 μM calcein-AM in PBS for 30 minutes at room temperature. Fluorescence intensity of intracellularly hydrolyzed calcein-AM was measured using excitation and emission wavelengths of 490 nm and 520 nm. Fractional cell inhibition was calculated by subtracting fluorescence of live cells in experimental wells from those of untreated cells and normalizing against untreated cells.

[1] = Solubility of hydrophobic drugs in CAGE; details: organic solvent or mixture
rats = details: cited from earlier work
physchem = details: organic solvent or mixture
Caco-2 cells [2] = assay: Tight junction integrity (TEER) in Caco-2 cells; type: cell-based, human
Description: […] Furthermore, TEER was measured at every time point when aliquots were withdrawn from the transwells and plotted as % change from initial value vs time.
TEER values were recorded for each insert. […] TEER was plotted as % change from initial value vs time.

[3] = test system: non-diabetic male Wistar rats; assay: Blood glucose lowering after oral administration in enterically coated capsules; type: in vivo, rat; details: oral controls, 12 h
Description: (§1) For the oral efficacy study, adult non-diabetic male Wistar rats were fasted overnight but given free access to water. On the next day, the capsules were administered to the rats using an oral gavage followed by subcutaneous administration of 5 mg/kg metoclopramide HCl to promote gastric emptying. Blood glucose was thereafter measured using a commercial glucose meter and subsequently every hour till 12 h. Rats were fasted throughout the period of study. […] In addition, the efficacy of subcutaneously injected 2 U/kg insulin-saline was also evaluated. […] The results were plotted as percent change in blood glucose level vs time.
as §1, with “To determine the efficacy of insulin-CAGE administered through the oral route, elongated size 9 capsules were used. […] Following this, the capsules were enterically coated three times with 12.5% w/v Eudragit® L-100 dissolved in isopropanol. For” for “For”, “Next” for “On the next”, “was” for “was also”, “time. […] After 12 h of study, rats were euthanized, and small intestinal sections were collected for tissue histology.” for “time.”

[4] = FITC labeled dextran, neat CAGE sample
Description: These experiments were done using skin as a model tissue. […] 50 ul of each sample was injected intradermally into one side of a 5 cm×5 cm square of porcine skin. […] The samples were incubated at RT for 2 h (while we were getting trained) and then imaged. The samples were incubated for an additional 2 h at 37° C. and imaged again. 2 h samples had different exposures (we were still learning the system). The 4 h samples were all taken at the same exposure. The size of the fluorescing area for each sample and time point was estimated by drawing a shape around the area manually using ImageJ™

Caco-2 monolayers [5] = assay: FITC-insulin transport across Caco-2 monolayers; type: cell-based, human
Description: TEER was measured on a regular basis and when it reached above 200 ohms·cm^2, indicating sufficient tight junction integrity between cells, transport study was performed.
After the end of study at 5 h, the FITC-insulin concentration in the aliquots were measured using a plate reader (Tecan, Infinite M1000, Mannedorf, Switzerland) at 495/520 nm excitation/emission wavelengths and plotted as % FITC-insulin transport vs time. Furthermore, TEER was measured at every time point when aliquots were withdrawn from the transwells and plotted as % change from initial value vs time.
TEER was measured on a regular basis and when it reached above 200 ohms. cm2, indicating sufficient tight junction integrity between cells, transport study was performed.
After the end of study at 5 h, the FITC-insulin concentration in the aliquots were measured using a plate reader (Tecan, Infinite M1000, Mannedorf, Switzerland) at 495/520 nm excitation/emission wavelengths and plotted as % FITC-insulin transport vs time. Furthermore, TEER was measured at every time point when aliquots were withdrawn from the transwells and plotted as […].

Caco-2 cells [6] = assay: GFP plasmid transfection of Caco-2 cells; type: cell-based, human; details: Caco-2, CAGE in lieu of lipofectamine, P3000 0.09%
Description: Caco-2 cells were seeded at 80% confluency in either 96-well half area or 24-well tissue culture treated plates a day prior to adding transfection reagents. For lipofectamine transfection studies, Lipofectamine 3000 reagent (final concs. 0.07% or 0.13%) was prepared in Opti-Mem Medium and mixed. A master mix of plasmid DNA was prepared separately by diluting the GFP plasmid (50 ng/well for 96-well half area plate or 250 ng/well for 24-well plate) in Opti-Mem Medium with P3000 enhancer reagent (final conc. 0.09% v/v). The master mix of plasmid DNA was added to tubes of the diluted lipofectamine 3000 reagent at a 1:1 ratio. The mixture was allowed to incubate for 20 minutes at room temperature to allow for the plasmid to become incorporated into the cationic lipofectamine. The DNA-lipid complex mixture was then added directly to cells in complete cell culture media at final concs. of 0.07% or 0.13%. Total volume of 96-well half area plate was 100 uL and for the 24-well plate 500 uL. This transfection mixture was removed after 3 days of incubation, washed with DPBS, and replaced with complete DMEM cell culture media.
If P3000 enhancer reagent was used, the final conc. was maintained at the same 0.09%. The transfection mixtures were removed after 1 day or 3 days, washed with DPBS, and replaced with complete DMEM cell culture media.

Caco-2 monolayers [7] = details: for enhancement of 4 kDa FITC-dextran transport: various time points
Description: (§2) Before the start of the experiment, the medium in the transwells was replaced with DMEM devoid of phenol red, FBS and P/S in both the apical (200 μL) and basolateral side (600 μL) and the cells were incubated for 30 minutes. […] This was repeated at 1, 2, 3, 4 and 5 h. During the study, the transwell plates were placed inside an incubator at 37° C., 5% CO2 on a shaker rotating at 100 rpm and only taken out to remove aliquots at each time point. After the end of study at 5 h, fluorescence in the aliquots with FTIC-dextran concentrations were measured using a plate reader (BioTek Synergy NEO HTS™ microplate reader (Winooski, Vt., USA) at 485/530, 495/520 and 468/568 nm excitation/emission wavelengths, respectively. Calibration solutions for each test article were prepared and analyzed using fluorescence readings for FITC-dextran which was used to plot of basolateral chamber concentration vs time plots.

Caco-2 cells [8] = details: Caco-2, 12-48 h incubation
Description: Control wells were filled with media only. […] The plates were wrapped in foil and shaken for 20 min, then absorbance was read at 570 nm using a microplate reader (M220 Infinite Pro, Tecan Group Ltd, Morrisville, N.Y.). Absorbance readings were normalized using the non-treated cell viability values.

[9] = test system: non-diabetic male Wistar rats; assay: Blood glucose lowering after intrajejunal administration; type: in vivo, rat; details: intrajejunal controls (neat CAGE, 3 U/kg insulin-saline), 5 h
Description: Before the start of the study, the rats were anesthetized, abdominal hair clipped and the area prepped for surgery using 70% ethanol and betadine. An incision was made in the abdomen to expose the intestine. […] Each formulation was tested in 6 rats with the exception of saline which was tested in only 3 rats. Thereafter, intestinal section was placed back into the abdomen and the muscle and skin sutured. Blood glucose was determined using a commercial glucose meter in the beginning and at every 0.5 h till the end of study at 5 h. The animals remained anesthetized throughout the study, at the end of which they were euthanized and the intestinal section around the injection site was removed for further histological examination to determine toxicity, if any. […] The results were plotted as % change in blood glucose levels with respect to initial reading at t=0 vs time.
Before the start of the study, the rats were anesthetized, abdominal hair clipped, and the surgery area was prepped using 70% ethanol and betadine. An incision was made in the abdomen to expose the intestine. […] The time zero blood glucose was taken after the intestine was exposed i.e. immediately prior to the injections. Each formulation was tested in 6 rats with the exception of saline which was tested in only 3 rats. Thereafter, intestinal section was placed back into the abdomen and the muscle and skin sutured. Blood glucose was determined using a commercial glucose meter at the beginning and at every 0.5 h till the end of study at 5 h. Loss in body temperature in the animals during anesthesia was prevented by placing the animals on temperature controlled warming pads prior to surgery followed by additional towel cover after surgery. The animals remained anesthetized throughout the study and were euthanized after 5 h. At the end of study at 5 h, the intestinal section around the injection site was removed for further histological examination to determine toxicity, if any. […] The results were plotted as % change in blood glucose levels with respect to initial reading vs time. In addition, the saline group was considered as fasting control and graphs were plotted after subtracting blood glucose levels of the saline group.

Caco-2 monolayers [10] = test system: Caco-2 monolayers
Description: For transport experiments in transwells, a 3-day rapid Caco-2 growth system was used. Cells were placed in Corning® basal seeding medium (BSM) supplemented with MITO serum+ extender and seeded at density of 400,000 cells/mL on Millicell® PCF inserts placed inside 24-well plates. 500 μL of cells containing medium was placed in apical side while 1000 μL of cell free BSM was put in the basolateral side as per manufacturer recommendation. After 24 h of incubation at 37° C., 5% CO2, the medium was replaced with same volume of enterocyte differentiation medium supplemented with MITO serum+ extender for another 2-4 days.
as §2, with “During the study, the transwell plates were placed inside an incubator at 37° C., 5% CO2 on a shaker rotating at 100 rpm and only taken out to remove aliquots at each time point.” left out, “LY and coumarin-6” for “FTIC-dextran”, “LY and coumarin-6” for “FITC-dextran”

[11] = test system: non-diabetic male Wistar rats; assay: In vivo bioactivity of insulin isolated from CAGE after storage; set-up: species or system rat; details: for blood glucose, % of initial level: 1 U/kg subcutaneous
Text: Prior to insulin injections, rats were fasted overnight but given free access to water and fasting continued throughout the study to eliminate variability in blood glucose due to food consumption. The results were plotted as % change in blood glucose compared to initial level vs time.

[12] = in vivo; cited from earlier work

CC[C@@]1(O)C(=O)OCc2c1cc1n(c2=O)Cc2cc3ccccc3nc2-1 [Camptothecin]
effect on 4T1 cells (4T1 cells): just as effective as those solubilized in DMSO
solubility [1]: 54 mg/mL (≈ 155 mM)

C[N+](C)(C)CCO [Choline]
oral LD50 (rats; oral): 3,400 mg/kg

CC(=O)O[C@H]1C(=O)[C@@]2(C)[C@H]([C@H](OC(=O)c3ccccc3)[C@]3(O)C[C@H](OC(=O)[C@H](O)[C@@H](NC(=O)c4ccccc4)c4ccccc4)C(C)=C1C3(C)C)[C@]1(OC(C)=O)CO[C@@H]1C[C@@H]2O [Paclitaxel]
effect on 4T1 cells (4T1 cells): just as effective as those solubilized in DMSO
solubility (physchem): 200 mg/mL (≈ 234 mM)

CC(C)=CCC/C(C)=C/C(=O)O [geranic acid]
oral LD50 (rats; rat, in vivo, po): 3,700 mg/kg

CCCCCCCCCC(=O)[O-].[Na+] [sodium caprate, reference compound]
tight junction integrity (TEER), % of initial levels (Caco-2 cells [2]; 10 mM sodium caprate, end of study at 24 h): 36%

Choline And GEranate [CAGE]
decrease in blood glucose of formulation controls [3]: about 25%
TEER drop (Caco-2 cells [2]; 10 mM CAGE, 1 h): 29%
TEER decrease (Caco-2 cells [2]; 25 mM CAGE): 40-50% and ~40%
TEER decrease (Caco-2 cells [2]; 50 mM CAGE): 40-50% and ~50%
TEER recovery, % of initial level (Caco-2 cells [2]; 50 mM CAGE, 24 h): 58%
area increase between 2 h and 4 h [4]: about 2 ×
enhancement of FITC-insulin transport vs no CAGE (Caco-2 monolayers [5]; 10 mM CAGE (Example 9)): 1.5-2 fold
enhancement of insulin transport compared to insulin in saline (Caco-2 monolayers [5]; 10 mM CAGE, Caco-2, 5 h study): 3-4 fold
higher transport of insulin compared to insulin-saline treated cells (Caco-2 monolayers [5]; 10 mM CAGE, all time points over 5 h): at least 3 times
enhancement of FITC-insulin transport vs no CAGE (Caco-2 monolayers [5]; 25 mM CAGE): 1.5-2 fold
enhancement of FITC-insulin transport vs no CAGE (Caco-2 monolayers [5]; 50 mM CAGE, all time points): > 10 fold
GFP plasmid transfection (Caco-2 cells [6]): can deliver DNA into cells
enhancement of 4 kDa FITC-dextran transport (Caco-2 monolayers [7]; 25 mM CAGE): 2-6 fold
enhancement of 4 kDa FITC-dextran transport (Caco-2 monolayers [7]; 50 mM CAGE): 6-13 fold
enhancement of 4 kDa FITC-dextran transport reached (Caco-2 monolayers [7]; concentration-dependent, highest): 13 fold
IC50 (Caco-2 cells [8]): 10 mM
decrease in blood glucose of control groups, % of initial level [9]: about 25%
enhancement of Lucifer yellow transport (Caco-2 monolayers [10]; 10 mM CAGE): ~2 fold
enhancement of Lucifer yellow transport (Caco-2 monolayers [10]; 50 mM CAGE, various time points): 7-10 fold

insulin isolated from CAGE: insulin stored in CAGE, isolated by centrifugation and washing, re-suspended in sterile saline
bioactivity after storage ([11]; stored at 4° C. with CAGE, 4 months): did not show any loss in bioactivity; also recorded: retained its bioactivity
blood glucose, % of initial level ([11]; stored in CAGE at RT for 3 months, 1 h): 61.57±2.38% and 62±2%
blood glucose, % of initial level ([11]; stored in CAGE at RT for 3 months, 2 h): 61.98±3.19% and 62±3%
drop in blood glucose ([11]; stored in CAGE at RT for 3 months, 1 and 2 h after injection): 38%

orally administered insulin solution: literature comparator of Ansari et al.
oral bioavailability [12]: 1.7%
